According to ChEMBL document CHEMBL1152090, “Engineering of cyclic peptides with novel inhibiting properties to differentiate two serine proteases, chymotrypsin and subtilisin Carlsberg” (Bioorg Med Chem Lett, 1994):

Key:
[1] = tested on: CC[C@H](C)[C@@H]1NC(=O)[C@@H](CCCN=C(N)N)NC(=O)[C@H](Cc2ccc(O)cc2)NC(=O)[C@@H](CCC(=O)O)NC(=O)[C@H](CCSC)NC(=O)[C@@H]([C@@H](C)O)NC(=O)[C@H](N)CCC(=O)NCCCC[C@H](C(N)=O)NC(=O)[C@@H](C(C)C)NC(=O)[C@H](CCCN=C(N)N)NC(=O)[C@@H](CCC(=O)O)NC1=O; details: 276 nM
[2] = tested on: CC[C@H](C)[C@@H]1NC(=O)[C@@H](CCCN=C(N)N)NC(=O)[C@H](Cc2ccc(O)cc2)NC(=O)[C@@H](CCC(=O)O)NC(=O)[C@H](CCSC)NC(=O)[C@@H]([C@@H](C)O)NC(=O)[C@H](N)CCC(=O)NCCCC[C@H](C(N)=O)NC(=O)[C@@H](C(C)C)NC(=O)[C@H](CCCN=C(N)N)NC(=O)[C@@H](CCC(=O)O)NC1=O; details: 120 nM
[3] = tested on: CC[C@H](C)[C@@H]1NC(=O)[C@@H](CCCN=C(N)N)NC(=O)[C@H](Cc2ccc(O)cc2)NC(=O)[C@@H](CCC(=O)O)NC(=O)[C@H](CCSC)NC(=O)[C@@H]([C@@H](C)O)NC(=O)[C@H](N)CCC(=O)NCCCC[C@H](C(N)=O)NC(=O)[C@@H](C(C)C)NC(=O)[C@H](CCCN=C(N)N)NC(=O)[C@@H](CCC(=O)O)NC1=O; details: 276 nM; remark: listed apart in the source
[4] = tested on: CC[C@H](C)[C@@H]1NC(=O)[C@@H](CCCN=C(N)N)NC(=O)[C@H](Cc2ccc(O)cc2)NC(=O)[C@@H](CCC(=O)O)NC(=O)[C@H](CCSC)NC(=O)[C@@H]([C@@H](C)O)NC(=O)[C@H](N)CCC(=O)NCCCC[C@H](C(N)=O)NC(=O)[C@@H](C(C)C)NC(=O)[C@H](CCCN=C(N)N)NC(=O)[C@@H](CCC(=O)O)NC1=O; details: 120 nM; remark: listed apart in the source
[5] = target: T1, Chymotrypsinogen A (Bos taurus, UniProt P00766); assay: Compound was tested for the inhibition of chymotrypsin at 120 nM
[6] = target: T1, Chymotrypsinogen A; assay: Compound was tested for the inhibition of chymotrypsin at 276 nM
[7] = Compound was tested for the inhibition of subtilisin carlsberg at 300 nM
[8] = Compound was tested for the inhibition of subtilisin carlsberg at 690 nM
[9] = target: T1, Chymotrypsinogen A; assay: Compound was tested for the inhibition of chymotrypsin at 138 nM
[10] = target: T1, Chymotrypsinogen A; assay: Compound was tested for the inhibition of chymotrypsin at 69 nM
[11] = Compound was tested for the inhibition of subtilisin carlsberg at 138 nM
[12] = Compound was tested for the inhibition of subtilisin carlsberg at 23 nM
[13] = target: Chymotrypsinogen A (Bos taurus) (UniProt P00766); details: 120 nM
[14] = target: Chymotrypsinogen A (Bos taurus) (UniProt P00766); details: 276 nM

Chymotrypsinogen A (Bos taurus) (from UniProt P00766)
Km [1]: 298 µM
Vmax [2]: 3.89e-07 M⁻¹ s⁻¹
Vmax [3]: 3.23e-07 M⁻¹ s⁻¹
Km [4]: 310 µM

CC[C@H](C)[C@@H]1NC(=O)[C@H](CCCNC(=N)N)NC(=O)[C@H](Cc2ccc(O)cc2)NC(=O)[C@H](CCC(=O)O)NC(=O)[C@H](CCSC)NC(=O)[C@H]([C@@H](C)O)NC(=O)[C@@H](N)CCC(=O)NCCCC[C@@H](C(N)=O)NC(=O)[C@H](C(C)C)NC(=O)[C@H](CCCNC(=N)N)NC(=O)[C@H](CCC(=O)O)NC1=O
Ki [5]: 668 nM
Ki [6]: 656 nM
Ki [7]: 775 nM
Ki [8]: 786 nM

CC[C@H](C)[C@@H]1NC(=O)[C@@H](NC(C)=O)CC(=O)/N=C(/N)NCCC[C@@H](C(N)=O)NC(=O)[C@H](Cc2ccc(O)cc2)NC(=O)[C@H](CCC(=O)O)NC(=O)[C@H](CCSC)NC(=O)[C@H]([C@@H](C)O)NC(=O)[C@H](C(C)C)NC1=O
Ki [9]: 191 nM
Ki [10]: 203 nM
Ki [11]: 116 nM
Ki [12]: 128 nM

CC[C@H](C)[C@@H]1NC(=O)[C@@H](CCCN=C(N)N)NC(=O)[C@H](Cc2ccc(O)cc2)NC(=O)[C@@H](CCC(=O)O)NC(=O)[C@H](CCSC)NC(=O)[C@@H]([C@@H](C)O)NC(=O)[C@H](N)CCC(=O)NCCCC[C@H](C(N)=O)NC(=O)[C@@H](C(C)C)NC(=O)[C@H](CCCN=C(N)N)NC(=O)[C@@H](CCC(=O)O)NC1=O
k cat [13]: 55.1 s⁻¹
k cat [14]: 45.8 s⁻¹
